Data reported in ChEMBL document CHEMBL1143273, “Structure-based hybridization of the bioactive natural products rhizonin A and ternatin leading to a selective fat-accumulation inhibitor against 3T3-L1 adipocytes” (Bioorg Med Chem Lett, 2009).
Non-standard residues stand in square brackets, D forms with d. Residues, ends and D or L forms follow the SMILES beside them. d(aIle) = CC[C@H](C)[C@@H](N)C(=O)O; NMeF = CN[C@@H](Cc1ccccc1)C(=O)O; dNMeF = CN[C@H](Cc1ccccc1)C(=O)O; NMeA = CN[C@@H](C)C(=O)O

Key:
3T3-L1 [1] = assay: Inhibition of fat-accumulation in mouse 3T3L1 cells; assay type: functional, cell-based
3T3-L1 [2] = assay: Selectivity index, ratio of IC50 for mouse 3T3L1 cells to IC50 for fat-accumulation in mouse 3T3L1 cells; assay type: functional
3T3-L1 [3] = assay: Cytotoxicity against mouse 3T3L1 cells; assay type: cell-based
3T3-L1 [4] = assay: Cytotoxicity against mouse 3T3L1 cells at 62 uM; assay type: cell-based; details: 3t3-l1, 62 µM

Row | Compound | IC50 (3T3-L1 [1]) [µM] | Ratio IC50 (3T3-L1 [2]) | IC50 (3T3-L1 [3]) [µM] | Activity (3T3-L1 [4]) [%]
1 | CC[C@H](C)[C@H]1NC(=O)[C@@H](Cc2ccccc2)N(C)C(=O)[C@H](C)N(C)C(=O)[C@H](CC(C)C)NC(=O)[C@H](Cc2ccccc2)N(C)C(=O)[C@H](C(C)C)NC(=O)[C@@H](C(C)C)NC1=O (cyclo(L[NMeA][dNMeF][d(aIle)][dV]V[NMeF])) | 42 | >12.3 | > 240 | –
2 | CC[C@H](C)[C@H]1NC(=O)[C@@H](Cc2ccoc2)N(C)C(=O)[C@H](C)N(C)C(=O)[C@H](CC(C)C)NC(=O)[C@H](Cc2ccoc2)N(C)C(=O)[C@H](C(C)C)NC(=O)[C@@H](C(C)C)NC1=O [RHIZONIN A] | 55 | 1 | 62 | 70
